Measurements published in US11840551B2, “Compositions and methods of modulating the immune response by activating alpha protein kinase 1” (Shanghai Yao Yuan Biotechnology Co., Ltd., priority 2017, dated 2023).

Columns and labels:
ALPK1 [1] = biological target: T1, ALPK1 (Homo sapiens, UniProt Q96QP1); test: Cell-free kinase assay of ALPK1 autophosphorylation (Western, anti-phospho-threonine); format: biochemical; conditions: 2 nM ALPK1 with ATP, 25° C., 1 h; H1b-ADP 10, 1, 0.2 nM; HBP and HMP-1bP 1, 10, 100 nM
T1 sequence (Q96QP1 whole entry): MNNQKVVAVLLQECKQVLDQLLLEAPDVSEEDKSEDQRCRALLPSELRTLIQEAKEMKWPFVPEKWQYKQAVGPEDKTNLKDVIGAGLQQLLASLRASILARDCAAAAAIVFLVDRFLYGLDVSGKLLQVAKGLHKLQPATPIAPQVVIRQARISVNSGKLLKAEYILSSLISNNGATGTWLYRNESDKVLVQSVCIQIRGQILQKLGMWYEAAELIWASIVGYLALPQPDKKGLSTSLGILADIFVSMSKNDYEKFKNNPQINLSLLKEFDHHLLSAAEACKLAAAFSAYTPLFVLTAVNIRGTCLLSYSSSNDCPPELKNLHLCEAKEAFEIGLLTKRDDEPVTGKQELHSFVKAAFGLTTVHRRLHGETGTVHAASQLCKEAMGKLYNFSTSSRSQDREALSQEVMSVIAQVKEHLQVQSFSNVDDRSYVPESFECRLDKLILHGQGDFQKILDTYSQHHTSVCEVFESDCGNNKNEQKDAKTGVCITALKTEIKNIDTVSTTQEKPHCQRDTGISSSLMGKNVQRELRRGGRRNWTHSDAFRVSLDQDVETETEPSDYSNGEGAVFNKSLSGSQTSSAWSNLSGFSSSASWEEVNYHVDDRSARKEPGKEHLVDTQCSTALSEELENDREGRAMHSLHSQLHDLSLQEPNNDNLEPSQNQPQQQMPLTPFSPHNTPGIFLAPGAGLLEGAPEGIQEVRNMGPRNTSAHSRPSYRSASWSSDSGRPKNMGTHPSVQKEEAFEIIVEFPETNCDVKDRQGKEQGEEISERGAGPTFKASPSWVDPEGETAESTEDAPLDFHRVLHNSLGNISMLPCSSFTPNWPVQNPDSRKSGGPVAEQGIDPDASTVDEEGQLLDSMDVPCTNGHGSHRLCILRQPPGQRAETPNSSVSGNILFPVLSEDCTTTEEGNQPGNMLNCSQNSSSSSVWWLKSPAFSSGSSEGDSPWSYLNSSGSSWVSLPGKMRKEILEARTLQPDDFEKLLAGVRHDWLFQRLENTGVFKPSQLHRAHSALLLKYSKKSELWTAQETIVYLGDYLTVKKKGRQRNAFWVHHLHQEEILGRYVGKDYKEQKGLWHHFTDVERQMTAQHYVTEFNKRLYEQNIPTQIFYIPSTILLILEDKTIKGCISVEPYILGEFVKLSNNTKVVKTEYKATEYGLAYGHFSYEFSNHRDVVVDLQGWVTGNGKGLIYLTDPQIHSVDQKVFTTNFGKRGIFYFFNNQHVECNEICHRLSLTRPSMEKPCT
Description: ALPK1 activation results in its autophosphorylation. Accordingly, we next asked whether the binding of H1b-ADP to ALPK1 was sufficient to induce ALPK1 autophosphorylation. Phosphorylation assays were performed according to standard protocols. Briefly, ALPK1 was incubated (2 nM, 25° C., 1 h) in assay buffer (20 μl, 25 mM HEPES pH 7.5, 50 mM KCl, 0.1 mM EDTA, 0.1 mM EGTA, 2 mM DTT, 1.5 mM CaCl2, 10 mM MgCl2) with ATP and chemically synthesized HBP, HMP-1bP, or H1b-ADP followed by denaturing gel electrophoresis and Western analysis with an anti-phospho-threonine antibody (CST) to detect autophosphorylation of ALPK1. […] The range of concentrations of HBP and HMP-1bP used in this assay (1 nM, 10 nM, 100 nM) was 10-fold higher than that used for H1b-ADP.

CT26 cells = test: CT26 tumor xenograft model, tumor growth (tumor volume); format: in vivo, BALB/c mice
Description: We used a CT26 tumor xenograft model to test the anti-cancer activity of H1b-ADP. Tumor cells (2×10^5 per 100 uL CT26 cells) were inoculated subcutaneously into the right flank of BALB/c mice. At day 6, mice whose tumors had reached 3-5 mm in diameter were randomized and grouped into three groups (n=8 each group), control, HMP-1bP (580 ug), and H1b-ADP (1.2 ug). Injections were performed using a total volume of 20 uL at days 6, 8, 10, 12, and 14 post inoculation. Tumor volumes were calculated every 2 days from caliper measurements of tumor dimension using the formula (L×W^2)/2, where L is the longer measurement.
To test whether H1b-ADP could augment an anti-tumor response by a checkpoint inhibitor, we tested the effects of co-administration with an anti-PD1 antibody. Tumor cells (2×10^5 per 100 μL CT26 cells) were inoculated subcutaneously into the left and right flanks of BALB/c mice. At day 7, mice whose tumors had reached 5 mm in diameter were randomized and grouped (n=8 each group) into the following four groups: anti-PD1 antibody; rat IgG; H1b-ADP+rat IgG; H1b-ADP+anti-PD1 antibody. We utilized RMP1-14 as the anti-PD1 antibody (10 mg/kg) and a rat IgG 2a (2A3) as the control IgG. Each of the anti-PD-1 antibody and the control IgG was administered intraperitoneally in a 200 μL volume on days 6, 10, 12, and 17 post-inoculation. H1b-ADP (6.2 μg) was intratumorally injected in a 20 μL volume at day 6, 8, 10, 12, and 15. Tumor volumes were calculated every 2 days from caliper measurements of tumor dimensions using the formula (L×W^2)/2, where L is the longer measurement. The results are shown in FIG. 13A for injected tumors and FIG. 13B for distant tumors. […]
The experiment was carried out as combo experiments of anti-PD1 except for the following variations. At day 6, mice whose tumors had reached 5 mm in diameter were randomized and grouped into the following four groups: anti-CTLA-4 antibody; rat IgG; H1b-ADP+rat IgG; H1b-ADP+anti-CTLA-4 antibody. We utilized 9D9 (BioxCell) as the anti-CTLA-4 antibody and a rat IgG 2b isotype (MPC-11 clone, BE0086, BioXCell) as the control IgG. Each of the anti-CTLA-4 antibody (25 μg) and the control IgG (25 μg) was administered intraperitoneally in a 200 μL volume on days 6 and 9 post-inoculation. H1b-ADP (6.2 μg) was administered intratumorally in a 20 μL volume on days 6, 7, 9, 11 post-inoculation.
The experiment was carried out as combo experiments of anti-PD1 except for the following variations. At day 6, mice whose tumors had reached 5 mm in diameter were randomized and grouped into the following four groups: c-di-AM(PS)2; PBS; H1b-ADP; H1b-ADP+c-di-AM(PS)2. We utilized c-di-AM(PS)2 as the STING agonist. […]

ALPK1 [2] = biological target: T1, ALPK1; test: IL-8 and TNFα mRNA expression in HEK293 cells with control or ALPK1-directed siRNA (qPCR); format: cell-based; set-up: silence ALPK1 expression in HEK293 cells; endogenous in cells; host or cells: HEK293; conditions: control vs ALPK1-directed siRNA, 4 hours, HBP 500, 100, 20 uM, HMP-1bP 500, 100 uM, H1b-ADP 100, 20, 4, 0.8 nM
Description: To test whether HBP, HMP-1bP, and H1b-ADP were able to induce cytokine expression in an ALPK1 dependent manner, we used an ALPK1-directed small interfering RNA (siRNA) to silence ALPK1 expression in HEK293 cells. Cells were plated (1×10^4 cells/well) into 96-well plates and transfected with either control siRNA or ALPK1-directed siRNA according to the manufacturer's protocols (Lipofectamine™ RNAiMax™, Invitrogen 13778075). Following 2 days of culture, either (1) HBP (500 uM, 100 uM, 20 uM, FIG. 2A-2B) (2) HMP-1bP (500 uM, 100 uM, FIG. 3A-3B), (3) H1b-ADP (100 nM, 20 nM, 4 nM, 0.8 nM, FIG. 4A-4B) was added to culture medium and cells were harvested 4 hours later.

Row | SMILES | autophosphorylation of ALPK1 (ALPK1 [1]) | tumor growth (CT26 cells; intratumoral, days 6, 8, 10, 12, 14, HMP-1bP 580 ug, H1b-ADP 1.2 ug) | IL-8 mRNA expression (ALPK1 [2]) | TNFα mRNA expression (ALPK1 [2]) | tumor growth (CT26 cells; Example 7, H1b-ADP 6.2 μg intratumoral, anti-PD1 antibody 10 mg/kg intraperitoneal, injected and distant tumors)
1 | O=P(O)(O)O[C@@H]1O[C@H]([C@H](O)CO)[C@@H](O)[C@H](O)[C@@H]1O [HMP-1bP, D-glycero-β-D-manno-heptose-1-phosphate] | not HBP or HMP-1bP induces ATP-dependent autophosphorylation | but not HMP-1bP, reduced tumor growth | increased in an ALPK1-dependent manner | increased in an ALPK1-dependent manner | 
2 | Nc1ncnc2c1ncn2[C@@H]1O[C@H](COP(=O)(O)OP(=O)(O)O[C@@H]2O[C@H]([C@H](O)CO)[C@@H](O)[C@H](O)[C@@H]2O)[C@@H](O)[C@H]1O [Compound H1b-ADP, D-glycero-D-manno-heptose-1β-ADP] | phosphorylation of ALPK1 was detected only in the presence of H1b-ADP |  | increased in an ALPK1-dependent manner | increased in an ALPK1-dependent manner | markedly suppressed tumor growth
